Measured values taken from ChEMBL document CHEMBL1201862, “PubChem BioAssay data set” (2004).
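Protocol summary: plate cells (96-well), add compound at 5 concentrations, incubate 48 h, interpolate endpoints linearly. GI50 = concentration required for 50% inhibition of growth.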 Active and inactive are the calls of the source. No stated cut-off is given here; in the data, active = GI50 up to about 1.1 µM and inactive = higher.

Legend:
Experiment in all cases: NCI tumour cell line growth inhibition, 48 h
[1] = system: HOP-92
[2] = system: K562
[3] = system: KM12
[4] = system: M14
[5] = system: Malme-3M
[6] = system: NCI-H460
[7] = system: NCI-H522
[8] = system: OVCAR-3
[9] = system: RXF 393
[10] = system: SF-295
[11] = system: SF-539
[12] = system: SNB-75
[13] = system: SW-620
[14] = system: TK-10
[15] = system: UO-31
[16] = system: A498

Measured: GI50

O=C1C(=Cc2cccs2)C(=O)N(CCc2ccccc2)S(=O)(=O)N1CCc1ccccc1
inactive: [1] > 50 µM | [2] 32.7 µM | [3] > 50 µM | [4] > 50 µM | [5] > 50 µM | [6] > 50 µM | [7] 15.5 µM | [8] > 50 µM | [9] 20.7 µM | [10] > 50 µM | [11] > 50 µM | [12] > 50 µM | [13] > 50 µM | [14] > 50 µM | [15] > 50 µM

COC1OC(C)C2OC(C)(C)OC2C1OC(C)=O (stereo not given)
inactive: [16] > 100 µM | [1] > 100 µM | [2] > 100 µM | [3] > 100 µM | [4] > 100 µM | [5] > 100 µM | [6] > 100 µM | [7] > 100 µM | [8] > 100 µM | [9] 39.7 µM | [10] > 100 µM | [11] > 100 µM | [13] > 100 µM | [14] > 100 µM

Cc1cccc(/N=C/c2ccc(N(CCC#N)S(=O)(=O)c3ccccc3)cc2C)c1
inactive: [16] > 100 µM | [1] 33.3 µM | [2] 34.5 µM | [3] > 100 µM | [4] > 100 µM | [5] > 100 µM | [7] > 100 µM | [8] > 100 µM | [10] > 100 µM | [11] > 100 µM | [12] 67 µM | [13] > 100 µM | [14] > 100 µM | [15] 13.3 µM

COc1ccc(/N=N/c2c(-c3ccccc3)nn(C(=O)CC(=O)Nc3cccc(Cl)c3)c2-c2ccccc2)cc1
inactive: [16] > 100 µM | [1] 40.6 µM | [2] 85.7 µM | [3] 10.9 µM | [5] > 100 µM | [6] 49.3 µM | [7] 43 µM | [8] 29.6 µM | [10] 26.9 µM | [11] 68.9 µM | [12] 6.08 µM | [13] > 100 µM | [14] 72.9 µM | [15] 5.11 µM

Cc1[nH]c2ccccc2c1C(=O)/C=C/c1ccccc1O
inactive: [16] > 100 µM | [2] > 100 µM | [3] > 100 µM | [4] > 100 µM | [5] > 100 µM | [6] > 100 µM | [7] > 100 µM | [8] > 100 µM | [9] > 100 µM | [10] > 100 µM | [12] > 100 µM | [13] > 100 µM | [14] > 100 µM | [15] > 100 µM

Cc1ccc(S(=O)(=O)C(C#N)c2nc3ccccc3nc2-n2cccn2)cc1 (stereo not given)
inactive: [1] > 100 µM | [2] > 100 µM | [3] > 100 µM | [4] > 100 µM | [5] > 100 µM | [6] > 100 µM | [8] > 100 µM | [10] > 100 µM | [11] > 100 µM | [12] > 100 µM | [14] > 100 µM | [15] > 100 µM

CC(=O)OC[C@@H]1[C@H]2CC(=O)O[C@H]2C[C@H]1OC(C)=O
inactive: [16] > 100 µM | [1] > 100 µM | [3] > 100 µM | [4] > 100 µM | [5] > 100 µM | [6] > 100 µM | [7] > 100 µM | [8] > 100 µM | [9] > 100 µM | [10] > 100 µM | [11] > 100 µM | [12] > 100 µM | [13] > 100 µM | [14] > 100 µM | [15] > 100 µM

C=CCC1(CN(C)C)CC/C(=C\c2ccc(Cl)cc2)C1=O (stereo not given)
inactive: [16] 37.2 µM | [1] 66.8 µM | [2] 26.9 µM | [3] 29.5 µM | [4] 23.7 µM | [5] > 74.5 µM | [6] 20.2 µM | [7] 18.9 µM | [8] 36.1 µM | [9] 31 µM | [10] 35.5 µM | [11] > 54.1 µM | [12] 33 µM | [13] 26.9 µM | [14] > 100 µM | [15] 41.5 µM

S=c1c2ccccc2c(=S)n2n1CC=CC2
inactive: [16] 76.2 µM | [1] > 100 µM | [2] > 100 µM | [3] > 100 µM | [4] > 100 µM | [5] > 100 µM | [7] 75.7 µM | [8] > 100 µM | [9] > 100 µM | [10] > 100 µM | [11] > 100 µM | [12] 68.1 µM | [13] > 100 µM | [14] > 100 µM | [15] > 100 µM

NC(=O)COc1ccc(Br)cc1Br
inactive: [16] > 100 µM | [1] > 100 µM | [2] > 100 µM | [3] 85.3 µM | [4] > 100 µM | [5] > 100 µM | [6] > 100 µM | [7] > 100 µM | [8] > 100 µM | [10] > 100 µM | [11] > 100 µM | [12] 52.1 µM | [13] > 100 µM | [15] > 100 µM

Cc1ccc(S(=O)(=O)N/N=C(\c2nc3ccc([N+](=O)[O-])cc3nc2O)C(O)c2ccccc2Cl)cc1 (stereo not given)
inactive: [16] > 100 µM | [1] > 100 µM | [2] 28.2 µM | [3] 93.8 µM | [4] 82.8 µM | [5] > 100 µM | [6] > 100 µM | [7] 6.93 µM | [8] > 100 µM | [10] > 100 µM | [11] > 100 µM | [12] > 100 µM | [13] > 100 µM | [14] > 100 µM | [15] > 100 µM

Cc1cc(C)nc(NS(=O)(=O)c2ccc(NC(=O)c3cccc4cc5ccccc5nc34)cc2)n1
inactive: [16] 21.3 µM | [2] 24.5 µM | [3] 24.5 µM | [4] 24.2 µM | [5] 23.4 µM | [6] 34 µM | [7] 18.7 µM | [8] 24.8 µM | [9] 23.1 µM | [10] 30.1 µM | [11] 15.3 µM | [12] 51.4 µM | [13] 32.7 µM | [14] 50.2 µM | [15] 53.8 µM

COC(=O)CCSC(=O)Nc1ccccc1Cl
inactive: [16] > 100 µM | [2] > 100 µM | [3] > 100 µM | [4] > 100 µM | [6] > 100 µM | [7] 1.36 µM | [8] > 100 µM | [10] > 100 µM | [11] > 100 µM | [12] > 100 µM | [13] > 100 µM | [14] > 100 µM | [15] > 100 µM

Cc1ccc(/C=N/NS(=O)(=O)c2ccccc2)cc1
inactive: [16] > 100 µM | [1] > 100 µM | [2] > 100 µM | [3] > 100 µM | [4] > 100 µM | [5] > 100 µM | [6] > 100 µM | [8] > 100 µM | [9] > 100 µM | [10] 74 µM | [11] > 100 µM | [12] > 100 µM | [13] > 100 µM | [14] > 100 µM | [15] > 100 µM

C/C=C1\CN2CCc3c([nH]c4ccccc34)C2CC1C(=O)OC (stereo not given)
inactive: [1] 169 µM | [2] > 322 µM | [3] > 322 µM | [5] > 322 µM | [6] > 322 µM | [7] 287 µM | [8] > 322 µM | [9] > 322 µM | [10] > 322 µM | [11] > 322 µM | [13] > 322 µM | [14] > 322 µM

CC1(C)C(O)OC(O)C1(C)C (stereo not given)
inactive: [1] > 100 µM | [2] 57.9 µM | [3] > 100 µM | [4] 65.2 µM | [5] > 100 µM | [6] > 100 µM | [8] 30.9 µM | [9] 32.6 µM | [10] > 100 µM | [12] 35.2 µM | [13] 49.7 µM | [14] > 100 µM | [15] 57.3 µM

COC1(C)C(=O)N2C1N(C(=O)OCc1ccccc1)CC2(C)C (stereo not given)
inactive: [16] > 100 µM | [2] > 100 µM | [4] > 100 µM | [5] > 100 µM | [6] > 100 µM | [8] > 100 µM | [9] > 100 µM | [10] > 100 µM | [11] > 100 µM | [12] 44.9 µM | [13] > 100 µM | [14] > 100 µM | [15] > 100 µM

O=C(N/C(=C\c1cccc([N+](=O)[O-])c1)c1nc2c3c(ccc2[nH]1)C(=O)c1ccccc1C3=O)c1ccccc1
inactive: [16] 83 µM | [1] 32.4 µM | [3] 14.5 µM | [4] 45.5 µM | [5] 40.7 µM | [6] 24.7 µM | [7] 16.5 µM | [8] 49.1 µM | [11] 21.4 µM | [12] 58.6 µM | [13] 45.5 µM | [14] 20.2 µM | [15] > 100 µM

CCOC(=O)C(C)(C)Oc1ccc2c(C)c(-c3ccc(Cl)cc3)c(=O)oc2c1
inactive: [16] > 100 µM | [2] 14.7 µM | [4] 74.8 µM | [5] 33.3 µM | [6] > 100 µM | [8] 85.1 µM | [9] > 100 µM | [10] 79.6 µM | [11] > 100 µM | [12] 35.8 µM | [13] > 100 µM | [14] > 100 µM | [15] 55.5 µM
